test: physchem; conditions: octan-1-ol/water, pH 7.4

Structure (SMILES)	logD
Oc1ccc2c3c1O[C@H]1c4[nH]c5c(c4C[C@@]4(O)[C@@H](C2)N(CC2CC2)CC[C@]314)C[C@@]1(O)[C@H]2Cc3ccc(O)c4c3[C@@]1(CCN2CC1CC1)[C@H]5O4 [NORBINALTORPHIMINE]	1.41
O=C(Nc1cccc([C@@H](c2ccc(C(=O)N3CCC3)cc2)N2CCN(Cc3ccc(F)cc3)CC2)c1)C1CC1	3.58
Nc1ccc2nc(-c3ccc(O)cc3)sc2c1	3.1
COc1cc2c(c(OC)c1OC)-c1ccc(OC)c(=O)cc1[C@@H](NC(C)=O)CC2 [COLCHICINE]	0.82
CN(C)C(=O)N[C@H]1CC[C@H](CN2[C@@H]3CC[C@H]2C[C@@H](Oc2cccc(C(N)=O)c2)C3)CC1	-0.07
NC(=O)c1cccc(N[C@H]2C[C@H]3CC[C@@H](C2)N3Cc2ccccc2)c1	1.01
CCNC1=Nc2ccccc2C(c2ccccc2)=NC1c1cccs1 (configuration not stated)	3.98
CC(C)[C@@H](CN1CCCCC1)N(C)C(=O)Cc1ccc(Cl)c(Cl)c1	2.87
CCN(C)C(=O)c1ccc([C@H](c2cccc(NC(=O)C3CCC3)c2)N2CCN(Cc3cccnc3)CC2)cc1	3.27
CCc1c(C(=O)C(N)=O)c2c(OCC(N)=O)cccc2n1Cc1ccccc1	2.1
CCCNC(=O)c1nnc2c(-c3cnc(OC)nc3OC)cccc2c1N	3.26
Cc1cc(O[C@H]2C[C@H]3CC[C@@H](C2)N3Cc2ccccc2)cc(C(N)=O)c1	2.08
Cc1ccc(CN2C(=O)CCSc3ccc(Cl)cc32)cc1	3.7
O=C(O)c1cn(C2CC2)c2cc(=[N+]3CCN(C(=O)CC[N+](=O)[O-])CC3)c(F)cc-2c1[O-]	0.22
NC(=O)c1ccc(O[C@H]2C[C@H]3CC[C@@H](C2)N3Cc2ccccc2)nc1	1.25
O=c1cc(O)oc2c1c(=O)n(Cc1ccccc1)c1ccccc21	1.97
CN(C)C(=O)N[C@H]1CC[C@H](CCN2[C@@H]3CC[C@H]2C[C@@H](Oc2cccc(C(N)=O)c2)C3)CC1	0.12

same assay, conditions: octan-1-ol/water, pH 7.4, LogD7.4

Structure (SMILES)	logD
CN[C@@H](C)C(=O)N[C@H](C(=O)N[C@H]1CCCN(CCCc2ccccc2)C1)C1CCCCC1	2.6
OC1(c2ccccc2)CNCCc2ccccc21 (configuration not stated)	1.38
C[C@H](CO)Nc1nc(SCc2cccc(Cl)c2)nc2nc(N)sc12	3.31
CN(C)CCCn1c2c(c3ccccc31)CCCCCC2 [IPRINDOLE]	2.96
Cc1[nH]c2nc(NCc3cccc(Br)c3)nn2c(=O)c1Cc1ccccc1	3.68
Nc1ccn([C@@H]2O[C@H](CO)[C@@H](O)C2(F)F)c(=O)n1 [GEMCITABINE]	-1.5
CSc1nc2cc(Cl)ccc2[nH]1	3.22
N#Cc1c(-c2ccc(-c3ccccc3C(F)(F)F)cc2)nc2ccncc2c1O	3.3
NNc1nc2ccccc2[nH]c1=O	0.44
O=C(NS(=O)(=O)c1ccc(NCCSc2ccccc2)c([N+](=O)[O-])c1)c1ccc(N2CCNCC2)cc1	-0.04
CC(C)CCCC(C)/N=c1\ccn(Cc2ccccc2)c2cc(Cl)ccc12 (configuration not stated)	1.58
N[C@@H](Cc1ccc(F)cc1)C(=O)O	-1.06
CCNCc1cnc(-c2ccc(C(=O)Nc3ccccc3N)cc2)s1	0.95
Cc1sc(CN2CCNCC2)cc1C(=O)NCC12CC3CC(CC(C3)C1)C2	2.55
CN(C)S(=O)(=O)c1ccc2c(C(=O)NC[C@@H](O)CN3CCC(Oc4ccc(Cl)c(Cl)c4)CC3)c[nH]c(=O)c2c1	3.13
O=c1ccnc2cc(C#Cc3ccccc3)ccn12	2.9
O=C(CC1CCN(Cc2ccn(-c3ccc(C(F)(F)F)cc3)c2)CC1)NC(c1ccc(F)cc1)c1c[nH]c(=O)c(Cl)c1 (configuration not stated)	3.12
CC1CC(OC(=O)C(O)c2ccccc2)CC(C)(C)C1 (configuration not stated) [CYCLANDELATE]	2.31
O=C(COCc1ccncc1)N1CCC(c2ccc(Cl)cc2)CC1	2.74

Structure (SMILES)	logD
CN[C@@H](C)C(=O)N[C@H](C(=O)N[C@H]1CCCN(CCc2cccc(OC)c2)C1)C(C)(C)C	1.47
CCCCCCCN(CCc1ccc(OC(C)(C)C(=O)O)cc1)C(=O)Nc1ccc(F)cc1F	1.93
NCc1nc2ccccc2[nH]1	0.4
NC(=O)c1cc(O)cc2nc(-c3ccc(O)cc3)oc12	2.3
COc1ccc2c(C)cc(N[C@H]3CC[C@H](NCc4cn(C)c5ccccc45)C3)nc2c1	2.53
O=S(=O)(Cc1ccccc1)NCC(c1ccccc1)N1CCCCCC1 (configuration not stated)	2.83
O=C1/C(=N\O)c2ccccc2N1Cc1ccccc1[N+](=O)[O-]	2.07
COc1c(C#N)cc2ccccc2c1C(=O)N(C)C[C@@H](CCN1CCC(N2CCCNC2=O)CC1)c1ccc(Cl)c(Cl)c1	3
O=C1c2ccccc2CN1C1CCN(CCC(c2ccccc2)c2ccccc2)CC1	4.1
COc1ncnc(NS(=O)(=O)c2ccc(N)cc2)c1OC [SULFADOXINE]	-0.73
CNC(=O)c1cnn(-c2ccccc2)c1NS(=O)(=O)c1ccc(C)cc1	-0.54
Nc1cc(-c2ccccc2)nc2ccccc12	2.2
CC(C)C(NC(=O)Cn1c(-c2ccccc2)ccc(NC(=O)NCc2ccccn2)c1=O)C(=O)C(F)(F)F (configuration not stated)	2.15
O=c1[nH]c2cc(Cl)c(Cl)c([N+](=O)[O-])c2[nH]c1=O [LICOSTINEL]	0.21
CN1C(=O)CC(c2ccccc2)C1=O (configuration not stated) [PHENSUXIMIDE]	0.68
CCCCCC[C@H]1OC(=O)CNC(=O)[C@@H]([C@H](C)O)NC(=O)[C@H](CO)NC(=O)[C@H]([C@H](C)CC)NC(=O)[C@H](CC(C)C)N(C)C(=O)[C@@H]1C	3.2
c1ccc2[nH]c(-c3cscn3)nc2c1 [THIABENDAZOLE]	2.35
CCCN(C)c1nc(N2CCC[C@@H](CC(=O)O)C2)ccc1C(=O)NC1CCCCC1	2.28
c1ccc(-c2nc3ccccc3[nH]2)nc1	2.5

More lines, now with the values ahead:

logD	Structure (SMILES)
0.75	CN(CCCc1ccccc1)S(=O)(=O)c1cc(C(=O)N2CCc3ccc(S(=O)(=O)NCCc4ccccc4)cc3C2)c(O)c(O)c1O
2.8	Nc1cccc(CCc2ccc3cc[nH]c3c2)n1
3.62	O=C(Nc1nc(-c2ccccc2)cs1)c1cccnc1
1.49	CC(=O)NC[C@H]1CN(c2ccc(N3CCN(c4cnccn4)CC3)c(F)c2)C(=O)O1
2.38	COc1ccc(CN2C(=O)CCC2(C)C(=O)NC2CCCCC2)c(OC)c1 (configuration not stated)
3.42	Cc1c(-c2ccccc2)oc2c(C(=O)OCCN3CCCCC3)cccc2c1=O [FLAVOXATE]
3.72	CCN(CC)CCOC(=O)C1(C2CCCCC2)CCCCC1 [DICYCLOMINE]
2.24	O=C(c1ccc(-c2nc(=O)o[nH]2)cc1)N1CCC(N2CCC(Oc3ccc(Cl)c(Cl)c3)CC2)CC1
2.7	CC[C@H](C)[C@@H](CO)NS(=O)(=O)c1ccc(Cl)s1
0.42	O=C(COc1ccc(OCCNCC(O)COc2ccccc2)cc1)NCCO (configuration not stated)
2.9	CN(C)CC(O)COc1ccc(Nc2nccc(Nc3cc(Cl)ccc3Cl)n2)cc1 (configuration not stated)
2.72	Cc1cc2n[nH]c(=O)n2c2cc(-c3cccnc3)ccc12
4.16	Nc1nc(-c2ccccc2)nc2c1nc(O)n2Cc1ccccc1
2.93	CCCCC(CC)COC(=O)CC(C(=O)OCC(CC)CCCC)S(=O)(=O)O (configuration not stated) [DOCUSATE]
1.37	CCC(c1nc2ccoc2c(=O)n1Cc1ccccc1)N(CCCN)C(=O)c1ccc(C)cc1 (configuration not stated)
1.66	C[C@H](N)C(=O)N[C@H](/C=C/S(=O)(=O)c1ccccc1)CCc1ccccc1
2.7	Cc1sc2ncnc(SCC(=O)N3CCN(C(=O)c4ccco4)CC3)c2c1C
2.52	CN(C)C(=O)C1(N2CCCCC2=O)CCN(CC[C@H](CN(C)C(=O)c2cc(C#N)cc3ccccc23)c2ccc(Cl)c(Cl)c2)CC1
1.63	Cn1c(=N)n(CC(=O)c2ccc(Cl)cc2)c2ccccc21
3.92	COc1ccc(-c2cccc3c(N)c4c(nc23)CN(C2CCC2)C4=O)c(C)n1
3.46	Clc1ccccc1CN1CCc2sccc2C1 [TICLOPIDINE]
2.49	OC(CCN1CCCCC1)(c1ccccc1)C1CC2C=CC1C2 (configuration not stated) [BIPERIDEN]
-0.06	C[C@H]1O[C@@H](n2cnc3c(N)nc(OC4CCOC4)nc32)[C@H](O)[C@@H]1O (some centres not stated)
0.61	OCC[C@]1(c2ccc(Cl)c(Cl)c2)CCCNC1

logD	Structure (SMILES)
3.7	CN(C(=O)Cc1ccc(C#N)cc1)C1CCN(CCC(c2ccccc2)c2ccccc2)CC1
1.75	Nc1nccc(-c2cccs2)n1
1.92	NC(=O)c1cccc(OC2CCN(Cc3ccccc3)CC2)c1
4.29	O=S(=O)(NCC(c1ccccc1)N1CCCCCC1)c1ccc(C(F)(F)F)cc1 (configuration not stated)
4	CCN(C(=O)NCc1ccccc1)C1CCN(CCC(c2ccccc2)c2ccccc2)CC1
-0.7	C[C@@](Cc1ccc(O)c(O)c1)(NN)C(=O)O [CARBIDOPA ANHYDROUS]
0	CN1CCN(CC(=O)Nc2c(C#N)cnn2-c2ccccc2)CC1
1.5	C[C@@H]1CN(C(=O)[C@@](C)(O)C(F)(F)F)[C@@H](C)CN1C(=O)c1ccc(C#N)cc1
3.1	Nc1nc2ccc(-c3cccc(O)c3)cc2s1
2.32	COc1cc2c(Nc3ncc(NC(=O)c4ccccc4)cn3)ncnc2cc1OCCCN1CCOCC1
0.84	CC(C)C(NC(=O)Cn1c(-c2ccccc2)ccc(NC(=O)OCc2ccc(C(=O)O)cc2)c1=O)C(=O)C(F)(F)F (configuration not stated)
2.87	CCn1c(=O)c2c(-c3cncn3C)n(Cc3ccnc4ccc(Cl)cc34)nc2n(CC2CC2)c1=O
0.48	CNS(=O)(=O)CCc1ccc2[nH]cc(C3CCN(C)CC3)c2c1
1.81	N#Cc1cccc(S(=O)(=O)NC(=O)N2CCC(N3CCC(Oc4ccc(Cl)c(Cl)c4)CC3)CC2)c1
3.7	CNc1nc2nc(SCc3cccc(F)c3F)nc(N[C@H](C)CO)c2s1
0.74	COc1cc(C(=O)NCc2ccc(OCCN(C)C)cc2)cc(OC)c1OC [TRIMETHOBENZAMIDE]
2.27	COc1ccc(COc2ccc(Cc3cnc(N)nc3N)cc2OC)cc1 [GW632580X]
-0.55	CN[C@@H](C)C(=O)N[C@H](C(=O)N[C@H]1CCCN(CCc2ccccn2)C1)C(C)(C)C
3.1	O=C1C(=O)c2cc(-c3ccsc3)ccc2-c2ccccc21
1.27	NC(=O)Nc1sc(-c2ccccc2)cc1C(=O)N[C@H]1CCCNC1
3.32	O=C(Nc1ccc(Cl)c(Cl)c1)N1CCN(C[C@H]2CN(C3CC3)CCO2)CC1
1.21	CSc1nc(C(N)=O)c(N)s1
2.59	C1=C(c2cc3ccccc3o2)C2CCN1CC2
